“Also recorded” adds a separate entry of the source. Where a name gives a salt, the structure may show the parent alone. Read-outs that look alike come from different tables or passages of the source.
Assays:
[1] = test system: collagen-induced arthritis; assay: Collagen-induced arthritis (CIA); assay type: in vivo, Syngeneic LOU rats
Excerpt: One of the experimental models for IC-mediated tissue injury is the CIA in rodents (Kleinau et al., 2000, J. Exp. Med. 191:1611-1616). Injection of type II collagen (CII) into rodents produces an immune reaction that characteristically involves inflammatory destruction of cartilage and bone of the distal joints with concomitant swelling of surrounding tissues. CIA in rats is commonly used to evaluate compounds that might be of potential use as drugs for treatment of rheumatoid arthritis and other chronic inflammatory conditions and is induced in susceptible strains of either mice or rats by injection of CII in incomplete Freund's adjuvant (IFA). Administration of this emulsion gives rise to polyarthritis, characterized by synovial hyperplasia, infiltration of mononuclear cells, pannus formation, and destruction of cartilage and bone. […] Syngeneic LOU rats were immunized on Day 0 with native chicken CII/IFA. Oral treatment began at the onset of arthritis symptoms (Day 10). […] Hind limbs were scored daily for clinical arthritis severity using a standardized method based on the degree of joint inflammation. High resolution digital radiographs of hind limbs were obtained at the conclusion of the study (Day 28). These limbs were also analyzed for histopathologic changes. IgG antibodies to native CII were measured in quadruplicate by ELISA. […] Brahn. 2004). Blinded composite histopathologic studies confirmed the regression of pannus and erosions: […] Antibodies to native CII were not decreased in Compound 1-treated rats.

Water solubility = assay type: physicochemical
[2] = test system: FcϵRI-dependent production and release of LTC4; assay: FcϵRI-dependent production and release of LTC4; assay type: cell-based
CHMCs = assay: Ionomycin-induced degranulation of CHMCs; assay type: cell-based, Human
[3] = in vivo
Method: (§1) GLP toxicology studies included negative mutagenicity and clastogenicity studies (Ames, chromosomal aberration, and mouse micronucleus). […] The No Observed Adverse Effect Level (NOAEL) is 10-30 mg/kg/day for rats and 100 mg/kg/day for monkeys.

[4] = test system: Reverse Passive Arthus (RPA) reaction; assay: Reverse Passive Arthus (RPA) reaction; assay type: in vivo, rat
Excerpt: IC-mediated acute inflammatory tissue injury is implicated in a variety of human autoimmune diseases, including vasculitis, serum sickness, systemic lupus erythematosus, RA, and glomerulonephritis. The classical experimental model for IC-mediated tissue injury is the Reverse Passive Arthus (RPA) reaction. Intravenous injection of antigen (ovalbumin, OVA) following intradermal injection of antibodies specific to OVA (rabbit anti-OVA IgG) results in perivascular deposition of IC and a rapid inflammatory response characterized by edema, neutrophil infiltration, and hemorrhage at the injection sites (Szalai, et al., 2000, J. Immunol. 164(1):463-468).

[5] = test system: FcϵRI-dependent production and release of cytokines; assay: FcϵRI-dependent production and release of cytokines; assay type: cell-based; conditions: read-out: EC50, all cytokines tested
[6] = GLP mutagenicity and clastogenicity studies (Ames, chromosomal aberration, mouse micronucleus)
Method: as §1

[7] = test system: collagen antibody-induced arthritis (CAIA); assay: Collagen antibody-induced arthritis (CAIA) model; assay type: in vivo, Balb/c mice
Excerpt: This passive model differs from the traditional rodent collagen-induced arthritis (CIA) in that disease symptoms appear quickly (developing within 24-48 hrs after an IV-injection of antibodies), arthritis is inducible in both CIA-susceptible and CIA-resistant mouse strains, and it allows evaluation of inflammation that is independent of antibody production. CAIA was induced in Balb/c mice by intravenous injection of Arthrogen-CIA® Monoclonal Antibody Blend (Chemicon International, Inc., Temecula, Calif.) via the tail vein, followed 2 days later by an intraperitoneal injection of LPS. […] The severity of the arthritis in hind-paws was scored daily (scale of 0-4 per paw, sum of scores for both hind paws).

[8] = test system: Cord-Blood Derived Primary Human Mast Cells (CHMC); assay: FcϵRI-dependent activation of CHMC, activity of tryptase released upon degranulation; assay type: cell-based; conditions: Mast cell
[9] = Moisture sorption analysis; assay type: physicochemical
Method: The sample for moisture analysis was allowed to dry at 25° C. for up to 4 hours under a stream of dry nitrogen. The relative humidity was then increased stepwise from 10 to 90% relative humidity (adsorption scan) allowing the sample to equilibrate for a maximum of four hours before weighing and moving on to the next step. The desorption scan was measured from 85 to 0% relative humidity with the same equilibration time. The sample was then dried at 80° C. for 2 hours or until no weight loss was observed under a stream of dry nitrogen.

[10] = Stability under acidic and neutral conditions; assay type: physicochemical; conditions: acidic and neutral conditions at 37° C.
Stability in rat plasma = assay type: in vitro ADME
Excerpt: The presence of Phosphatase activity in rat plasma was confirmed using p-nitrophenyl phosphate—a known substrate for phosphatase.

[11] = Pharmacokinetics, IV and oral dosing; assay type: in vivo, Sprague-Dawley rats
Method: Prodrug Compound 4 was tested for oral bioavailability. For the study, the prodrug was dissolved in various vehicles (e.g. PEG 400 solution and CMC suspension) for intravenous and oral dosing in the rats. […] Following administration of the prodrug and/or drug, plasma samples were obtained and extracted. The plasma concentrations of the prodrug and/or drug were determined by high performance liquid chromatography/tandem mass spectrometry (LC/MS/MS) methods. Pharmacokinetic analyses were performed based on the plasma concentration data. The pharmacokinetic parameters of interest include Clearance (CL), Volume of distribution at steady-state (Vss), terminal half-life (t ½), and oral bioavailability (% F).
Referring to FIG. 4, PK profiles are shown for IV and PO administration in Sprague-Dawley rats. For IV administration, Compound 4 was dissolved in PEG-400 and administered at a dose of 1 mg/kg.
FIG. 5 summarizes the PK parameters for the study described in FIG. 4.
FIG. 11 illustrates the absorption of prodrug Compound 4 from different vehicles. […] Prodrug Compound 4 is absorbed equally well in solution formulations (PEG-400 and carboxymethylcellulose (CMC)) and as a powder in hard gelatin capsules.

[12] = Conversion of prodrug to drug in microsome preparations; assay type: in vitro ADME, rat
Excerpt: Although phosphate-containing prodrugs suitable for oral administration are of interest, skilled artisans will appreciate that prodrugs including phosphate-containing progroups R^p can be administered via other routes of administration, as phosphatases are distributed throughout the body. […] Thus, the only requirement is that the particular phosphate-containing progroup R^p selected should be removable under the conditions of intended use.

[13] = aqueous buffer, aqueous buffer under physiological conditions, read-out: water solubility
[14] = water, water solubility, read-out: Solubility
[15] = water, in water, read-out: solubility

## COc1cc(Nc2ncc(F)c(Nc3ccc4c(n3)NC(=O)C(C)(C)O4)n2)cc(OC)c1OC [Compound 1, N4-(2,2-dimethyl-3-oxo-4H-5-pyrido[1,4]oxazin-6-yl)-5-fluoro-N2-(3,4,5-trimethoxyphenyl)-2,4-pyrimidinediamine]
[1]; 30 mg/kg q.d. p.o., evident within 7 days after initiation of therapy, p<0.05
  arthritis severity: significant reduction
[1]; 30 mg/kg, vehicle 11.8±0.9, p<0.001
  Mean modified Mankin scores: 3.7±0.9
[1]; Day 28, 30 mg/kg, vehicle 6.08±0.67, p<0.001
  clinical score: 2.54±0.98
[1]; Day 28, vehicle 3.66±0.71, p<0.02
  joint damage, blinded radiographs: 1.63±0.67
[1]; ELISA, treated rats
  Antibodies to native CII: not decreased
Water solubility; [13]
  solubility: < 1 µg/mL
Water solubility; phosphate buffer, pH 7.5, aqueous buffer, phosphate buffer at pH=7.5, read-out: measured solubility
  solubility: < 1 µg/mL
Water solubility; [14]
  solubility: < 1 µg/mL
[2]
  EC50: 39 nM
CHMCs
  inhibition of ionomycin-induced degranulation: does not inhibit
[3]; monkey
  28-day toxicity findings: reversible effect on hematology
[3]; rat
  28-day toxicity findings: reversible effect on hematology, liver transaminase (mild effect in the rat only), spleen and thymus size (rat only) and bone marrow cellularity (rat and monkey)
  CD45RA+ cells, immunophenotyping: significant increase
  Histopathology: mild reductions in marrow cellularity
  humoral immunity, anti-KLH antibody assessment: no evidence for untoward effects
  percentage of CD3+ cells, immunophenotyping: significant decrease
[4]; Rattus norvegicus, 10 mg/kg oral, rats, compared with vehicle control, read-out: inhibition of extravascular leakage of Evans blue dye (OD610) from tissue biopsies
  inhibition at 10 mg/kg: 80%
[4]; single oral treatment of rats one hour prior to antigen/antibody
  cutaneous RPA reaction and inflammatory edema: reduced the cutaneous RPA reaction and inflammatory edema in a dose-dependent manner
[5]
  EC50: 158 to 462 nM
[6]
  mutagenicity and clastogenicity: negative
[7]; lower dose levels, p>0.05
  arthritis severity, disease incidence, time of onset: the differences were not significant
[7]; oral, b.i.d., vs vehicle, p<0.05
  clinical arthritis: significantly reduced clinical arthritis
[8]
  EC50: ~43 nM

## COc1cc(Nc2ncc(F)c(Nc3ccc4c(n3)N(COP(=O)(O)O)C(=O)C(C)(C)O4)n2)cc(OC)c1OC [Prodrug Salt 6, N4-(2,2-dimethyl-4-[(dihydrogenphosphonoxy)methyl]-3-oxo-5-pyrido[1,4]oxazin-6-yl)-5-fluoro-N2-(3,4,5-trimethoxyphenyl)-2,4-pyrimidinediamine mono calcium salt]
Water solubility; [15]
  solubility: 15 µg/mL

## COc1cc(Nc2ncc(F)c(Nc3ccc4c(n3)N(COP(=O)([O-])[O-])C(=O)C(C)(C)O4)n2)cc(OC)c1OC.[Na+].[Na+] [prodrug salt hydrate 32, N4-(2,2-dimethyl-4-[(dihydrogenphosphonoxy)methyl]-3-oxo-5-pyrido[1,4]oxazin-6-yl)-5-fluoro-N2-(3,4,5-trimethoxyphenyl)-2,4-pyrimidinediamine disodium salt hexahydrate]
[9]; after humidity is increased
  water content: approximately 14.0%
[9]; dry conditions, ambient temperature, about 0% relative humidity
  moisture content: approximately 4.0%
[9]; hexahydrate form
  stability of hydration over relative humidity: stable over a wide range of relative humidities
Water solubility; [15]
  solubility: 10000 µg/mL

## COc1cc(Nc2ncc(F)c(Nc3ccc4c(n3)N(COP(=O)(O)O)C(=O)C(C)(C)O4)n2)cc(OC)c1OC [Compound 4, N4-(2,2-dimethyl-4-[(dihydrogenphosphonoxy)methyl]-3-oxo-5-pyrido[1,4]oxazin-6-yl)-5-fluoro-N2-(3,4,5-trimethoxyphenyl)-2,4-pyrimidinediamine]
[10]
  stability: stable
Stability in rat plasma
  stability in rat plasma / hydrolysis to Compound 1: metabolize to the active drug Compound 1; also recorded: unstable
[11]; IV 1 mg/kg in PEG-400
  plasma profile of prodrug after IV administration: Rapid disappearance
[11]; oral, PEG-400
  levels of drug metabolite Compound 1 after oral prodrug: high levels
  systemic presence of prodrug after oral administration: no prodrug Compound 4 was present systemically
[11]; oral, Compound 4 4 mg/kg vs Compound 1 2.5 mg/kg in PEG-400
  AUC/dose (Compound 1 exposure) / absorption, prodrug vs drug Compound 1: nearly identical
[11]; rats, PEG-400 and CMC solutions, powder in hard gelatin capsules
  dependence of absorption on formulation: not dependent upon formulation; also recorded: not dependent on formulation
[11]; study of FIG. 4/5
  clearance of prodrug: rapidly cleared
Water solubility; aqueous buffer under physiological conditions
  solubility of prodrug relative to active drug Compound 1: approximately 2000 times
Water solubility; [13]
  solubility: > 5000 µg/mL
Water solubility; [14]
  solubility: > 5000 µg/mL
[12]; intestinal and hepatic microsomes from a different source
  conversion to drug Compound 1: metabolize to the active drug Compound 1; also recorded: conversion of Compound 4 to Compound 1 was observed
[12]; microsomal preparations obtained from Xenotech
  conversion to drug Compound 1: failed to convert

— patent publication USRE48898E1, “Prodrugs of 2,4-pyrimidinediamine compounds and their uses” (Rigel Pharmaceuticals, Inc., priority 2006, dated 2022)
